From article PMC9762412 (SLAS discovery : advancing life sciences R & D, 2022)
Entries after “also recorded” stand apart in the source; their conditions may differ.

Assays:
[1] = tested on: CRF1+ neurons in the central nucleus of the amygdala (CeA); test: Electrophysiology, mIPSCs of CRF1+ neurons in CeA slices; set-up: species or system mouse
[2] = tested on: VTA dopamine neurons, NMDAR EPSCs; test: Electrophysiology, NMDAR EPSCs of VTA dopamine neurons in slices; set-up: species or system mouse; conditions: CRF 1 μM, VTA-DA neurons, male and female mice

Question: Which results are given for `CC[C@H](C)[C@H](NC(=O)[C@@H](NC(=O)[C@H](CCC(=O)O)NC(=O)[C@H](CCSC)NC(=O)[C@H](CC(C)C)NC(=O)[C@H](CCCCN)NC(=O)[C@H](CCCNC(=N)N)NC(=O)[C@H](CC(N)=O)NC(=O)[C@H](CO)NC(=O)[C@H](Cc1c[nH]cn1)NC(=O)[C@H](C)NC(=O)[C@H](CCC(N)=O)NC(=O)[C@H](CCC(N)=O)NC(=O)[C@H](C)NC(=O)[C@H](CC(C)C)NC(=O)[C@H](CCC(N)=O)NC(=O)[C@H](CCC(=O)O)NC(=O)[C@H](C)NC(=O)[C@H](CCCNC(=N)N)NC(=O)[C@H](C)NC(=O)[C@H](CCSC)NC(=O)[C@H](CCC(=O)O)NC(=O)[C@H](CC(C)C)NC(=O)[C@@H](NC(=O)[C@H](CCC(=O)O)NC(=O)[C@H](CCCNC(=N)N)NC(=O)[C@H](CC(C)C)NC(=O)[C@H](CC(C)C)NC(=O)[C@H](Cc1c[nH]cn1)NC(=O)[C@H](Cc1ccccc1)NC(=O)[C@@H](NC(=O)[C@H](CC(C)C)NC(=O)[C@H](CC(=O)O)NC(=O)[C@H](CC(C)C)NC(=O)[C@H](CO)NC(=O)[C@@H](NC(=O)[C@@H]1CCCN1C(=O)[C@@H]1CCCN1C(=O)[C@H](CCC(=O)O)NC(=O)[C@H](CCC(=O)O)NC(=O)[C@@H](N)CO)[C@@H](C)CC)[C@@H](C)O)C(C)C)[C@@H](C)CC)C(N)=O` [CRF, corticotropin releasing factor]?
Answer: Change in mIPSC properties by CRF after pre-treatment [1]: did not induce changes; also recorded: do not produce significant changes; Effect of CRF on NMDA receptor EPSCs [2]: potentiated
